Source: patent publication US20250041307A1, “Uses of Bicyclic Compounds for the Treatment of Diseases” (Athira Pharma, Inc., priority 2021, published 2025)

What was measured:
MDCK cells = test: Cell scattering behavior assay; format: cell-based; design: key: − indicates that the compound failed to significantly promote cell scattering behavior; + indicates maximum potency at or above 100 nM; ++ indicates maximum potency at or above 10 nM; +++ indicates maximum potency at or above 1 nM; ++++ indicates maximum potency at or above 0.1 nM; details: with 5 ng/mL HGF, 24 hours, normalized particle count compared to HGF treatment alone
Outline: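 MDCK cells starved 2 h in serum-free DMEM, then treated 24 h at 37 °C with compounds plus 5 ng/mL HGF. Cells were ethanol-fixed, WGA488-stained and imaged. Scattering was scored as particle count normalized to stained area, with activity taken as a statistical increase in normalized particle count over HGF alone.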

[1] = In vitro stability in rat plasma; format: in vitro ADME; details: 5 μM, 37° C.
Experimental: (§1) Bioavailability can be estimated by compound stability when exposed to conditions in the body. As an initial assessment of stability properties in a variety of conditions present in animals, exemplary compounds were tested for stability in a battery of simulated body compartments. Compounds were tested for stability in the following solutions: simulated gastric fluid (SGF: 34.2 mM NaCl, pH 1.2), simulated gastric fluid with the digestive enzyme pepsin (SGF+Enzyme: SGF with 3.2 mg/ml pepsin), simulated intestinal fluid with the mixture of enzymes in porcine pancreatin (SIF+Enzyme: 28.7 mM NaH2PO4, 105.7 mM NaCl, pH 6.8, 10 mg/ml pancreatin), rat plasma, and human plasma.
(§2) Test compounds were incubated at a final concentration of 5 μM in the above solutions at 37° C. with samples removed at the following time points: 0, 1, 2, and 4 hours. Reactions were stopped and prepared for quantification by addition of excess quench solution containing an internal standard (acetonitrile, 200 ng/mL bucetin). Test compound and internal standard in each sample was quantified by LC-MS/MS, and after internal normalization to bucetin, test compound concentration was expressed as a percentage of concentration at the 0-hour time point. Stability in the relevant test solution was then determined by the percent remaining at the 4-hour time point.

[2] = In vitro stability in human plasma; format: in vitro ADME; details: 5 μM, 37° C.
Experimental: as §1, §2

[3] = In vivo tissue distribution; design: species or system Sprague-dawley rats; details: rat, 10 minutes post administration
Experimental: The rate of distribution to target tissues is an important feature of therapeutic molecules. Tissue distribution of exemplary compounds was performed in mixed-sex Sprague-dawley rats. Test compounds were delivered via tail vein injection (IV) and tissues were collected at Tmax (10 minutes post administration). Animals were deeply anesthetized with isoflurane and whole blood was collected from the right atrium and processed by centrifugation to produce plasma. Animals were then fully perfused with PBS administered to the left ventricle to prevent blood contamination of tissues.
Tissues were collected and homogenized, and compound content in the target tissue was quantified by LC-MS/MS. Tissue distribution rates were determined by dividing the tissue concentration of compound by the plasma concentration and multiplying by 100.

Row | Compound | Potency (MDCK cells) | Rat Plasma, compound remaining after 4 hours [1] | Human Plasma, compound remaining after 4 hours [2] | Tissue Distribution (% Plasma exposure at 10 min post IV dose) Brain [3] | Tissue Distribution (% Plasma exposure at 10 min post IV dose) Cerebellum [3] | Tissue Distribution (% Plasma exposure at 10 min post IV dose) Cortex [3] | Tissue Distribution (% Plasma exposure at 10 min post IV dose) Hippocampus [3] | Tissue Distribution (% Plasma exposure at 10 min post IV dose) Muscle [3] | Tissue Distribution (% Plasma exposure at 10 min post IV dose) Sciatic Nerve [3]
1 | CCC(C)CN1CC2N(C(=O)c3ccc(C(F)(F)F)cc3)CCC(=O)N2[C@@H](C)C1=O (stereo partly drawn) [Compound 1a] | ++++ (++++ indicates maximum potency at or above 0.1 nM) | ++ (++ indicates 40-79% compound remaining after 4 hours) | ++ (++ indicates 40-79% compound remaining after 4 hours) | ++ (++ indicates distribution between 5 and 39%) | ++ (++ indicates distribution between 5 and 39%) | ++ (++ indicates distribution between 5 and 39%) | ++ (++ indicates distribution between 5 and 39%) |  | 
2 | CCC(C)CN1CC2N(C(=O)c3ccc(OC(F)F)cc3)CCC(=O)N2[C@@H](C)C1=O (stereo partly drawn) [Compound 2a] | + (+ indicates maximum potency at or above 100 nM) | ++ (++ indicates 40-79% compound remaining after 4 hours) | ++ (++ indicates 40-79% compound remaining after 4 hours) | ++ (++ indicates distribution between 5 and 39%) | + (+ indicates distribution between 0.05 and 5%) | ++ (++ indicates distribution between 5 and 39%) | ++ (++ indicates distribution between 5 and 39%) | ++++ (++++ indicates distribution above 70%) | ++++ (++++ indicates distribution above 70%)
3 | CCC(C)CN1CC2N(Cc3ccc(C(F)(F)F)cc3)CCC(=O)N2[C@@H](C)C1=O (stereo partly drawn) [Compound 5a] | ++++ (++++ indicates maximum potency at or above 0.1 nM) | ++ (++ indicates 40-79% compound remaining after 4 hours) | ++ (++ indicates 40-79% compound remaining after 4 hours) | ++++ (++++ indicates distribution above 70%) | ++++ (++++ indicates distribution above 70%) | ++++ (++++ indicates distribution above 70%) | ++++ (++++ indicates distribution above 70%) |  | 
4 | CCC(C)CN1CC2N(Cc3ccc(OC(F)F)cc3)CCC(=O)N2[C@@H](C)C1=O (stereo partly drawn) [Compound 6a] | +++ (+++ indicates maximum potency at or above 1 nM) | +++ (+++ indicates 80-99% compound remaining after 4 hours) | ++ (++ indicates 40-79% compound remaining after 4 hours) | ++ (++ indicates distribution between 5 and 39%) | ++ (++ indicates distribution between 5 and 39%) | ++ (++ indicates distribution between 5 and 39%) | ++ (++ indicates distribution between 5 and 39%) | ++++ (++++ indicates distribution above 70%) | ++++ (++++ indicates distribution above 70%)
5 | CCC(C)CN1CC2N(Cc3ccc(O)nc3)CCC(=O)N2[C@@H](C)C1=O (stereo partly drawn) [Compound 7a] | ++ (++ indicates maximum potency at or above 10 nM) |  |  | + (+ indicates distribution between 0.05 and 5%) | + (+ indicates distribution between 0.05 and 5%) | + (+ indicates distribution between 0.05 and 5%) | + (+ indicates distribution between 0.05 and 5%) | ++ (++ indicates distribution between 5 and 39%) | ++++ (++++ indicates distribution above 70%)
6 | CCC(C)CN1CC2N(C(=O)c3ccc(O)cc3)CCC(=O)N2[C@@H](C)C1=O (stereo partly drawn) [Compound 8a] | +++ (+++ indicates maximum potency at or above 1 nM) | ++++ (++++ indicates 100% compound remaining after 4 hours) | ++ (++ indicates 40-79% compound remaining after 4 hours) |  |  |  |  |  | 
7 | CCC(C)CN1CC2N(C(=O)c3ccc(F)cc3)CCC(=O)N2C(C)C1=O (stereo not drawn) [Compound 11, 1-(4-fluorobenzoyl)-6-methyl-8-(2-methylbutyl)hexahydro-4H-pyrazino[1,2-a]pyrimidine-4,7(6H)-dione] | ++ (++ indicates maximum potency at or above 10 nM) | ++++ (++++ indicates 100% compound remaining after 4 hours) | +++ (+++ indicates 80-99% compound remaining after 4 hours) | ++ (++ indicates distribution between 5 and 39%) | + (+ indicates distribution between 0.05 and 5%) | + (+ indicates distribution between 0.05 and 5%) | + (+ indicates distribution between 0.05 and 5%) |  | ++ (++ indicates distribution between 5 and 39%)
8 | CCC(C)CN1CC2N(C(=O)c3ccc(C(F)(F)F)c(Cl)c3)CCC(=O)N2C(C)C1=O (stereo not drawn) [Compound 12, 1-(3-chloro-4-(trifluoromethyl)benzoyl)-6-methyl-8-(2-methylbutyl)hexahydro-4H-pyrazino[1,2-a]pyrimidine-4,7(6H)-dione] | ++ (++ indicates maximum potency at or above 10 nM) | ++++ (++++ indicates 100% compound remaining after 4 hours) | +++ (+++ indicates 80-99% compound remaining after 4 hours) | ++ (++ indicates distribution between 5 and 39%) | ++ (++ indicates distribution between 5 and 39%) | ++ (++ indicates distribution between 5 and 39%) | ++ (++ indicates distribution between 5 and 39%) |  | +++ (+++ indicates distribution between 40 and 69%)
9 | CCCCN1CC2N(C(=O)c3ccc(OC(F)F)cc3)CCC(=O)N2C(C)C1=O (stereo not drawn) [Compound 17] | − | ++ (++ indicates 40-79% compound remaining after 4 hours) | +++ (+++ indicates 80-99% compound remaining after 4 hours) |  |  |  |  |  | 
10 | CC1C(=O)N(CCC2CCCC2)CC2N(C(=O)c3ccc(C(F)(F)F)cc3)CCC(=O)N12 (stereo not drawn) [Compound 19] | +++ (+++ indicates maximum potency at or above 1 nM) | +++ (+++ indicates 80-99% compound remaining after 4 hours) | +++ (+++ indicates 80-99% compound remaining after 4 hours) |  |  |  |  |  | 
11 | CC1C(=O)N(CCC2CCC2)CC2N(C(=O)c3ccc(C(F)(F)F)cc3)CCC(=O)N12 (stereo not drawn) [Compound 20] | +++ (+++ indicates maximum potency at or above 1 nM) | ++ (++ indicates 40-79% compound remaining after 4 hours) | +++ (+++ indicates 80-99% compound remaining after 4 hours) | ++++ (++++ indicates distribution above 70%) | ++++ (++++ indicates distribution above 70%) | ++++ (++++ indicates distribution above 70%) | +++ (+++ indicates distribution between 40 and 69%) |  | ++++ (++++ indicates distribution above 70%)
